What all share (assay type): cell-based
Experiment [1] concerns Staphylococcus aureus, USA 300 wherein ClpP is inactivated. The experiment can be described thus: Minimal inhibitory concentration assay. The essentials:
(§1)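 CLSI broth microdilution; 2-fold series from 200 μM final; inoculum ~10^5 cfu/mL; 37 °C, aerobic, overnight; visual MIC = lowest conc. without growth. The ClpP-inactivated USA 300 strain is the comparator for ClpP-dependent killing.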

Experiment [2] relates to Staphylococcus aureus, USA 300. In words: Minimal inhibitory concentration assay. The note with it: USA300, read-out: Minimal Inhibitory Concentrations S. aureus USA 300. The essentials: as §1
In a further experiment the test system is E. coli K12ΔtolC. In words: Minimal inhibitory concentration assay (microbroth dilution). A general note: Dilution methods test growth across graded concentrations, often in twofold steps.
Experiment [3] has as its system Enterococcus faecalis, ATCC 33186. The experiment is described as above. The note with it: Enterococcus faecalis, ATCC33186; read-out: Minimal Inhibitory Concentrations E. faecalis ATCC 33186. The essentials: as §1
For experiment [4], the system named is Streptococcus pneumoniae, DAW27. Described as above. The note with it: DAW27, read-out: Minimal Inhibitory Concentrations S. pneumoniae DAW27. The essentials: as §1
For experiment [5], the system named is Staphylococcus aureus, NRS70. The description is as above. The note with it: Staphylococcus aureus, NRS70; read-out: Minimal Inhibitory Concentrations S. aureus NRS70. The essentials: as §1
For experiment [6], the system named is Staphylococcus aureus, ATCC 29213. The experiment is described as above. The note with it: ATCC29213, read-out: Minimal Inhibitory Concentrations S. aureus ATCC 29213. The essentials: as §1
The test system of experiment [7] is Bacillus subtilis, ATCC 23857. The description is as above. The note with it: Bacillus subtilis, ATCC23857; read-out: Minimal Inhibitory Concentrations B. subtilis ATCC 23857. The essentials:
as §1

For experiment [8], the system named is Streptococcus pyogenes, ATCC 700294. The description is as above. The note with it: Streptococcus pyogenes, ATCC700294; read-out: Minimal Inhibitory Concentrations S. pyogenes ATCC 700294. The essentials: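 CLSI broth microdilution: two-fold serial compound dilutions in appropriate broth, inoculated and incubated aerobically overnight at 37° C. MIC read visually as lowest concentration preventing bacterial growth.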

Converted amounts (≈) assume the structure as drawn.

On to `O=C(N[C@H](CO)[C@H](O)c1ccc([N+](=O)[O-])cc1)C(Cl)Cl` [Chloroamphenicol, chloramphenicol, reference compound], for which, in experiment [1], the “Minimal Inhibitory Concentrations S. aureus USA 300 ΔClpP” value was found to be 6.3 µM. Besides, the MIC in experiment [2] was determined as 3.1 µM (≈ 1 µg/mL); in [3], 0.39 µM (≈ 0.126 µg/mL); in experiment [4] it was 0.78 µM (≈ 0.252 µg/mL); in experiment [5], 3.1 µM (≈ 1 µg/mL); in experiment [6], 3.13 µM (≈ 1.01 µg/mL); in [7], 3.1 µM (≈ 1 µg/mL). Moreover, the “Minimal Inhibitory Concentrations E. coli K12ΔtolC” value in the experiment on E. coli K12ΔtolC worked out at 0.78 µM.
In the case of `CCc1ccc(NC(=O)N[C@@H](Cc2ccccc2)C(=O)N[C@H]2COC(=O)[C@@H]3C[C@@H](C)CN3C(=O)[C@H](C)NC(=O)[C@@H]3CCCCN3C(=O)[C@@H]3CCCN3C2=O)cc1` [Compound 4, (S)—N-((2R,6S,8aS,14aS,20S,23aS)-2,6-dimethyl-5,8,14,19,23-pentaoxooctadecahydro-1H,5H,14H,19H-pyrido[2,1-i]dipyrrolo[2,1-c:2′,1′-l][1]oxa[4,7,10,13]tetraazacyclohexadecin-20-yl)-2-(3-(4-ethylphenyl)ureido)-3-phenylpropanamide], the “Minimal Inhibitory Concentrations E. coli K12ΔtolC” value with E. coli K12ΔtolC was found to be 25 µM. For the same compound, the MIC in experiment [3] amounted to 0.1 µM (≈ 0.0772 µg/mL); in experiment [4] it was 0.04 µM (≈ 0.0309 µg/mL); in experiment [5], 0.39 µM (≈ 0.301 µg/mL); in [6] it was 0.78 µM (≈ 0.602 µg/mL); in experiment [7] it was 0.2 µM (≈ 0.154 µg/mL); in [8] it was 0.2 µM (≈ 0.154 µg/mL).
As for `COc1cccc(NC(=O)N[C@@H](Cc2ccccc2)C(=O)N[C@H]2COC(=O)[C@@H]3C[C@@H](C)CN3C(=O)[C@H](C)NC(=O)[C@@H]3CCCCN3C(=O)[C@@H]3CCCN3C2=O)c1` [Compound 8, (S)—N-((2R,6S,8aS,14aS,20S,23aS)-2,6-dimethyl-5,8,14,19,23-pentaoxooctadecahydro-1H,5H,14H,19H-pyrido[2,1-i]dipyrrolo[2,1-c:2′,1′-l][1]oxa[4,7,10,13]tetraazacyclohexadecin-20-yl)-2-(3-(3-methoxyphenyl)ureido)-3-phenylpropanamide], the “Minimal Inhibitory Concentrations E. coli K12ΔtolC” value in the experiment with E. coli K12ΔtolC came to 200 µM. The MIC stood at 1.56 µM (≈ 1.21 µg/mL) in [3]; 0.39 µM (≈ 0.302 µg/mL) in experiment [4]; 3.13 µM (≈ 2.42 µg/mL) in [5]; 3.13 µM (≈ 2.42 µg/mL) in [6]; 3.13 µM (≈ 2.42 µg/mL) in experiment [7]; 0.78 µM (≈ 0.604 µg/mL) in [8].
Regarding `NC[C@H]1O[C@H](O[C@H]2[C@H](O)[C@@H](O[C@H]3O[C@H](CO)[C@@H](O)[C@H](N)[C@H]3O)[C@H](N)C[C@@H]2N)[C@H](O)[C@@H](O)[C@@H]1O` [Kanamycin, kanamycin, reference compound], the “Minimal Inhibitory Concentrations E. coli K12ΔtolC” value in the experiment with E. coli K12ΔtolC turned out to be 0.4 µM. Besides, the MIC in experiment [3] was found to be 25 µM (≈ 12.1 µg/mL); in [4] it was 25 µM (≈ 12.1 µg/mL); in experiment [5], 50 µM (≈ 24.2 µg/mL); in [6] it was 1.56 µM (≈ 0.756 µg/mL); in experiment [7], 0.1 µM (≈ 0.0485 µg/mL); in experiment [8], 12.5 µM (≈ 6.06 µg/mL).
